The subject of one test is mice treated with MPTP. Particulars: cited from earlier work.
Another test deals with rats (model of anxiety). Particulars: cited from earlier work.
The subject of test [1] is mice (model of anxiety). Conditions: reported by Addex 2010; cited from earlier work.
The subject of test [2] is mice (model of anxiety). Conditions: reported by Addex 2010; cited from earlier work. This is another data set of the same source.
A further test has as its target human mGlu4 receptor (Homo sapiens (Human), UniProt Q14833). The experiment in a line: Ca2+ mobilization in vitro assay on recombinant human mGlu4 expressed in HEK293 cells (PAM). It counts as cell-based. Conditions: for Emax: HEK293, maximal response in % of maximal stimulatory effect of saturating L-AP4, read-out: Eff. (%); for EC50: HEK293 cells, human mGlu4, in presence of EC20 of L-AP4, read-out: EC50 (nM) mGlu4PAM. A digest of the protocol: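 HEK293 cells stably expressing human mGlu4 at low level, Fluo-4AM loaded; compound (11 half-log dilutions) pre-incubated 10–30 min at 37 °C, then L-AP4 added at EC20 (determined daily). Peak fluorescence minus basal, normalized to saturating L-AP4; EC50, Hill slope and % Emax from four-parameter fit.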
For orientation: A change in cytosolic calcium serves as a functional read-out for many receptors and channels.

The test system of test [3] is 6-OHDA rodent model of PD. Conditions: cited from earlier work.

Chain of human mGlu4 receptor (Q14833 33-912): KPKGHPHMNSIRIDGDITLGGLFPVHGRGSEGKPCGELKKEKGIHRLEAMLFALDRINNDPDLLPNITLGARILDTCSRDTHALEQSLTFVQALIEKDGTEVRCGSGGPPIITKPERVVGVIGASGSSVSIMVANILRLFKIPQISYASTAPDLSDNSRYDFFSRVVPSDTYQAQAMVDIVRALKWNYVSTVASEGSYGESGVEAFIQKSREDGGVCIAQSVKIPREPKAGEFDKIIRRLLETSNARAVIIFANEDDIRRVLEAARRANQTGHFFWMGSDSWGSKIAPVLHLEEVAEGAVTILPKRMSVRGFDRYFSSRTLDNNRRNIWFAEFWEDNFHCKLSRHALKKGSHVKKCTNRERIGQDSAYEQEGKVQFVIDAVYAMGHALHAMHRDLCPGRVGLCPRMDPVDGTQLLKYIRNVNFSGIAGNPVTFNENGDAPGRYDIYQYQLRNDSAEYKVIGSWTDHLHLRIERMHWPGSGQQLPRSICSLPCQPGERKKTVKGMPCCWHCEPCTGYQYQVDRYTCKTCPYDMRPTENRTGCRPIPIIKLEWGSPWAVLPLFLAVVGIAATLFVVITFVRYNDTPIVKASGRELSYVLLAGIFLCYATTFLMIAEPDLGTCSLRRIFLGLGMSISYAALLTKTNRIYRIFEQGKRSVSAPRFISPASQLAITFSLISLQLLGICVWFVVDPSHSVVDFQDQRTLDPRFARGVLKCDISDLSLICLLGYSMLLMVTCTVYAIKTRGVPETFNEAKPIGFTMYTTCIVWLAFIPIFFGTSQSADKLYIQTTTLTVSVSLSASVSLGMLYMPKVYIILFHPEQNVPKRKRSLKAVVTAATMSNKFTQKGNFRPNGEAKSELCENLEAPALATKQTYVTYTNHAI

Regarding `O=C(Nc1ccccc1)C12CC1/C(=N\O)c1ccccc1O2` (single isomer, unassigned; (-)) [(−)-PHCCC], the nigrostriatal degeneration result in the test on mice treated with MPTP is reported as “reduced nigrostriatal degeneration”.

For `Cc1ccnc(Nc2nc(-c3cn[nH]c3)c(C)s2)n1` [ADX88178], the “profile in rat EPM test” value in the test on rats (model of anxiety) (rat, after oral dosing) is “anxiolytic-like profile”. The “activity in EPM” value is “active” in the test on rats (model of anxiety) (rats, reported by Addex 2010) and “active” in the test with mice (model of anxiety) [2]. Besides, the “activity in marble burying test” value in the test on mice (model of anxiety) [1] was “active”.

The EC50 is the concentration that produces a half-maximal response. On to `COC[C@@]12CC(=O)N(c3c(F)cc(C#Cc4ccccc4)cc3F)C(=O)N1CCN(c1cnn(C)c1)C2=O` [Example 105, (9aR)-7-[2,6-difluoro-4-(2-phenylethynyl)phenyl]-9a-(methoxymethyl)-2-(1-methylpyrazol-4-yl)-4,9-dihydro-3H-pyrazino[1,2-c]pyrimidine-1,6,8-trione], for which, at human mGlu4 receptor, the Emax was determined as 144% and the EC50 was found to be 61 nM.

As to `CC[C@@]12CC(=O)N(c3c(F)cc(C#Cc4ccccc4)cc3F)C(=O)N1CCN(c1cccnc1)C2=O` [Example 106, (9aS)-7-[2,6-difluoro-4-(2-phenylethynyl)phenyl]-9a-ethyl-2-(3-pyridyl)-4,9-dihydro-3H-pyrazino[1,2-c]pyrimidine-1,6,8-trione], at human mGlu4 receptor, the Emax amounted to 112% and the EC50 stood at 95 nM.

`CC[C@@]12CC(=O)N(c3c(F)cc(C#Cc4ccccc4)cc3F)C(=O)N1CCN(c1cnn(C)c1)C2=O` [Example 107, (9aS)-7-[2,6-difluoro-4-(2-phenylethynyl)phenyl]-9a-ethyl-2-(1-methylpyrazol-4-yl)-4,9-dihydro-3H-pyrazino[1,2-c]pyrimidine-1,6,8-trione]: at human mGlu4 receptor, the Emax stood at 125% and the 50% effective concentration (EC50) worked out at 104 nM.

As for `C[C@@]12CC(=O)N(c3c(F)cc(C#Cc4ccccc4F)cc3F)C(=O)N1CCN(c1cccnc1)C2=O` [Example 109, (9aS)-7-[2,6-difluoro-4-[2-(2-fluorophenyl)ethynyl]phenyl]-9a-methyl-2-(3-pyridyl)-4,9-dihydro-3H-pyrazino[1,2-c]pyrimidine-1,6,8-trione], on human mGlu4 receptor, the Emax came out at 85% and the EC50 is 56 nM.

Consider `C[C@@]12CC(=O)N(c3c(F)cc(C#Cc4ccccc4F)cc3F)C(=O)N1CCN(c1ccncn1)C2=O` [Example 110, (9aS)-7-[2,6-difluoro-4-[2-(2-fluorophenyl)ethynyl]phenyl]-9a-methyl-2-pyrimidin-4-yl-4,9-dihydro-3H-pyrazino[1,2-c]pyrimidine-1,6,8-trione], for which, at human mGlu4 receptor, the Emax was 90% and the EC50 was 31 nM.

As to `Cn1cc(N2CCN3C(=O)N(c4c(F)cc(C#Cc5ccccc5F)cc4F)C(=O)C[C@@]3(C)C2=O)cn1` [Example 111, (9aS)-7-[2,6-difluoro-4-[2-(2-fluorophenyl)ethynyl]phenyl]-9a-methyl-2-(1-methylpyrazol-4-yl)-4,9-dihydro-3H-pyrazino[1,2-c]pyrimidine-1,6,8-trione], on human mGlu4 receptor, the Emax turned out to be 120% and the EC50 was 56 nM.

Turning to `N[C@@H](CCP(=O)(O)O)C(=O)O` [L-AP4, (2S)-2-amino-4-phosphonobutanoic acid], the neuroprotection result in test [3] was “neuroprotective effects”.

Values taken from US10011607B2, “Ethynyl derivatives” (Hoffmann-La Roche Inc., priority 2015, dated 2018).
